{"source": "patent US20250041282A1", "about": "“METHOD FOR TREATING INFLAMMATORY PULMONARY DISEASE” (FU JEN CATHOLIC UNIVERSITY, priority 2021, published 2025)", "key": {"[1]": {"test_system": "C57BL/6 mice with LPS-induced systemic inflammation", "test": "Lung function in mice with LPS-induced systemic inflammation (Buxco)", "format": "in vivo, mouse", "details": "FJU-C28 5 mg/kg, LPS 7.5 mg/kg, 24 hours", "protocol": "Ten-week-old male C57BL/6 mice from BioLasco Taiwan Co., Ltd. (Taipei, Taiwan) were used in the present study. The mice were maintained under standard laboratory conditions as described in a previous study.^34 All animal procedures were approved by the Institutional Animal Care and Use Committee of Fu Jen Catholic University (IACUC approval number: A10508). We also confirmed that all experiments were performed in compliance with the ARRIVE guidelines. All surgeries were performed under anesthesia, and all efforts were made to minimize the pain and discomfort of the animals. The mice were randomly assigned to three groups: control (n=7), LPS (n=7) and LPS plus C28 (n=8). The mice were injected with/without FJU-C28 (5 mg/kg) dissolved in DMSO/PBS buffer, and after one hour the mice were stimulated with an intraperitoneal injection of LPS (7.5 mg/kg) in PBS buffer. At 24 hours after LPS stimulation, the mice were anesthetized i.p. with a mixture of ketamine (100 mg/kg) (Pfizer, New York, US) and xylazine (10 mg/kg) (Bayer, Leverkusen, Germany), endotracheally intubated with an airway catheter and connected to a forced pulmonary maneuver system (Buxco Research System; Buxco Electronics, Wilmington, NC). The detailed procedure was performed as described in a previous study.^34 The lung function values, including C chord (lung compliance), IC (inspiratory capacity), VC (vital capacity), FEV100 (forced expiratory volume at 100 ms) and FVC (forced vital capacity), were measured using a Buxco Research System. After the lung function assays, the experimental mice were sacrificed, and blood was collected by cardiac puncture. The lung lobes were inflated with 4% buffered paraformaldehyde via a catheter. Slides of lung specimens at a thickness of 5 μm were stained with hematoxylin and eosin for light microscopic analysis.\nTo evaluate the protective effect of FJU-C28 on lung function in mice with systemic inflammation induced by endotoxin, male C57BL/6 mice were administered LPS (7.5 mg/kg) and treated with/without FJU-C28 (5 mg/kg) for 24 hours; subsequently, lung function parameters were measured using a Buxco pulmonary function test system. […] However, treatment with FJU-C28 restored the LPS-induced decreases in lung function including VC (p<0.05), C chord, FEV100 (p<0.05), and FVC (p<0.05), compared to those of LPS-treated mice (FIG. 11). To confirm the status of LPS-induced lung injury in mice, histological examination of lung specimens was performed by H&E staining. […] To ascertain the correlation between target cytokines and lung injury, serum cytokines were measured by ELISA."}, "[2]": {"test_system": "RAW264.7 macrophages", "test": "ELISA of cytokines in cell culture media", "format": "cell-based, mouse", "protocol": "(§1) RANTES (RayBiotech), IL-1β and IL-6 (eBioscience, San Diego, CA, USA) concentrations in cell culture media and mouse serum were measured using ELISA kits according to the manufacturer's instructions. The plates were measured at […] using an Epoch microplate spectrophotometer (BioTek Instruments, Winooski, VT, USA). The concentrations of RANTES, IL-1β and IL-6 in the samples were determined by standard curves.\nFor identifying the potential signaling pathways which regulate the secretion of IL-6 and RANTES induced by LPS stimulation, RAW264.7 macrophages were pretreated with various kinase inhibitors for 30 min and then stimulated with/without 100 ng/ml LPS for 24 h; the cell culture media was harvested for ELISA assay. […] (FIG. 6A). To investigate whether FJU-C28 could mediate the transcriptional activity of NF-κB (p65), the translocation of NF-κB p65 was examined in LPS-stimulated macrophages."}, "[3]": {"test_system": "C57BL/6 mice with LPS-induced systemic inflammation", "test": "Histological examination of lung specimens (H&E)", "format": "in vivo, mouse", "details": "FJU-C28 5 mg/kg, LPS 7.5 mg/kg, FIG. 12A", "protocol": "Ten-week-old male C57BL/6 mice from BioLasco Taiwan Co., Ltd. (Taipei, Taiwan) were used in the present study. The mice were maintained under standard laboratory conditions as described in a previous study.^34 All animal procedures were approved by the Institutional Animal Care and Use Committee of Fu Jen Catholic University (IACUC approval number: A10508). We also confirmed that all experiments were performed in compliance with the ARRIVE guidelines. All surgeries were performed under anesthesia, and all efforts were made to minimize the pain and discomfort of the animals. The mice were randomly assigned to three groups: control (n=7), LPS (n=7) and LPS plus C28 (n=8). […] The detailed procedure was performed as described in a previous study.^34 The lung function values, including C chord (lung compliance), IC (inspiratory capacity), VC (vital capacity), FEV100 (forced expiratory volume at 100 ms) and FVC (forced vital capacity), were measured using a Buxco Research System. […]\nTo evaluate the protective effect of FJU-C28 on lung function in mice with systemic inflammation induced by endotoxin, male C57BL/6 mice were administered LPS (7.5 mg/kg) and treated with/without FJU-C28 (5 mg/kg) for 24 hours; subsequently, lung function parameters were measured using a Buxco pulmonary function test system. […]"}, "[4]": {"test_system": "RAW264.7 macrophages", "test": "Western blotting of LPS-stimulated macrophage lysates", "format": "cell-based, mouse", "source_text": "In brief, cell lysate was separated by 10% SDS-PAGE and transferred to a PVDF membrane (Hybond™-P, Amersham, Piscataway, NJ, USA). The blots were probed with anti-p38 (Catalogue Number: 8690P), anti-p-p38 (Thr180/Tyr182; Catalogue Number: 4511P), anti-ERK44/42 (Catalogue Number: 4695P), anti-p-ERK44/42 (Thr202/Tyr204; Catalogue Number: 4370P), anti-JNK (Catalogue Number: 9258P), anti-p-JNK (Thr183/Tyr185; Catalogue Number: 4668P), anti-p65 (Catalogue Number: 8242S), anti-STAT3 (Catalogue Number: 12640S), anti-p-STAT3 (Tyr705; Catalogue Number: 9145S) and anti-RANTES (Catalogue Number: 2989S) antibodies were provided by Cell Signaling Technology, Inc. (Danvers, MA, USA). Anti-Lamin A/C (Catalogue Number: 101127) antibodies were obtained from GeneTex, Inc. (San Antonio, TX, USA). Anti-β-Actin (Catalogue Number: SC-47778) and anti-COX2 (Catalogue Number: SC-1746) antibody was obtained from Santa Cruz Biotechnology, Inc. (Dallas, Texas, USA). The anti-iNOS (Catalog Number: 610329) antibody was obtained from BD transduction Lab. (San Jose, CA, USA). Bound antibodies were visualized by […] staining (Western Lighting Plus ECL; PerkinElmer, Wellesley, MA, USA) with autoradiography using FUJI Medical X-ray film (Fuji Corporation, Kofu, Yamanashi, Japan) or a MultiGel-21 multifunctional imaging system (TOPBIO, New Taipei, Taiwan). The intensity of the western blot bands was quantified by ImageJ software. The quantitative immunoblot data were normalized to the internal control protein and are expressed as the relative ratio of the treatment group to the control. The data represent the mean±S.D. of at least three independent experiments."}, "[5]": {"test_system": "C57BL/6 mice with LPS-induced systemic inflammation", "test": "Serum cytokines by ELISA in mice with LPS-induced systemic inflammation", "format": "in vivo, mouse", "details": "FJU-C28 5 mg/kg, LPS 7.5 mg/kg; FIG. 12B", "protocol": "as §1\nTen-week-old male C57BL/6 mice from BioLasco Taiwan Co., Ltd. (Taipei, Taiwan) were used in the present study. […] The detailed procedure was performed as described in a previous study.^34 The lung function values, including C chord (lung compliance), IC (inspiratory capacity), VC (vital capacity), FEV100 (forced expiratory volume at 100 ms) and FVC (forced vital capacity), were measured using a Buxco Research System. […]\nTo evaluate the protective effect of FJU-C28 on lung function in mice with systemic inflammation induced by endotoxin, male C57BL/6 mice were administered LPS (7.5 mg/kg) and treated with/without FJU-C28 (5 mg/kg) for 24 hours; subsequently, lung function parameters were measured using a Buxco pulmonary function test system. […] To ascertain the correlation between target cytokines and lung injury, serum cytokines were measured by ELISA."}, "[6]": {"details": "LPS-treated macrophages, cell culture media, FIG. 4C/4D"}, "[7]": {"details": "LPS-stimulated, at doses higher than 5 μM, FIG. 1D"}}, "data": [{"smiles": "C=CCC1CC(Sc2ccccc2)=CC(=O)N1C(=O)C=C", "note": "(centres unmarked) [FJU-C28]", "values": [{"measurement": "forced expiratory volume at 100 ms (FEV100)", "setting": "[1]; p<0.05 vs LPS-treated mice", "result": "restored"}, {"measurement": "forced vital capacity (FVC)", "setting": "[1]; p<0.05 vs LPS-treated mice", "result": "restored"}, {"measurement": "vital capacity (VC)", "setting": "[1]; p<0.05 vs LPS-treated mice", "result": "restored"}, {"measurement": "lung compliance (C chord)", "setting": "[1]; vs LPS-treated mice", "result": "restored"}, {"measurement": "production of IL-1β (ELISA)", "setting": "[2]; [6]", "result": "dramatically reduced"}, {"measurement": "production of IL-6 (ELISA)", "setting": "[2]; [6]", "result": "dramatically reduced"}, {"measurement": "LPS-induced expression of RANTES (ELISA)", "setting": "[2]; at 6 hours or 24 hours, FIG. 4A", "result": "dramatically suppressed"}, {"measurement": "alveolar structure in lung tissue", "setting": "[3]", "result": "sustained most of the alveolar structure"}, {"measurement": "neutrophil infiltration in the interstitium of the lung", "setting": "[3]", "result": "reduced the neutrophil infiltration in the interstitium"}, {"measurement": "LPS-induced level of p-ERK", "setting": "[4]; 5 μM and 10 μM, FIG. 6A", "result": "dramatically inhibited"}, {"measurement": "LPS-induced level of p-JNK", "setting": "[4]; 5 μM and 10 μM, FIG. 6A", "result": "dramatically inhibited"}, {"measurement": "LPS-induced level of p-p38", "setting": "[4]; 5 μM and 10 μM, FIG. 6A", "result": "dramatically inhibited"}, {"measurement": "levels of STAT3 protein", "setting": "[4]; FIG. 8", "result": "reducing the levels of STAT3 protein"}, {"measurement": "LPS-induced phosphorylation of STAT3", "setting": "[4]; LPS-induced RAW264.7, FIG. 6D", "result": "concentration-dependently inhibited"}, {"measurement": "expression of COX2 (immunoblot)", "setting": "[4]; [7]", "result": "suppressed"}, {"measurement": "expression of iNOS (immunoblot)", "setting": "[4]; [7]", "result": "suppressed"}, {"measurement": "NF-κB (p65) in nuclear extract (translocation)", "setting": "[4]; LPS-stimulated, increasing dose, FIG. 6C", "result": "nuclear NF-κB (p65) was decreased"}, {"measurement": "LPS-induced protein expression of RANTES (western blot)", "setting": "[4]; at 6 hours, FIG. 4B", "result": "dramatically suppressed"}, {"measurement": "circulating (serum) level of IL-6", "setting": "[5]", "result": "significantly suppressed"}, {"measurement": "circulating (serum) level of RANTES", "setting": "[5]", "result": "significantly suppressed"}]}]}
